System: Cyp1a2
Assay: Cytochrome P450 activity (P450-Glo Assay, induction of Cyp1a2)
Conditions: mouse iPS-derived hepatocyte-like cells kept in final maturation medium until day 42; incubation with 100 μM phenobarbital
Procedure: Cytochrome P450 activity. Cytochrome […] activity was detected by using the non-lytic method of P450-Glo™ Assay (Promega V8771). Mouse iPS cells were incubated with luminogenic substrate (Luciferin-ME) for 4 hours at 37° C. 50 μl was mixed with 50 μl Luciferin Detection Reagent in triplicate. Mean luminescence was calculated from 11 consecutive time points with 2 minutes interval. Induction of Cyp1a2 was performed by incubation with 100 μM phenobarbital.

## CCC1(c2ccccc2)C(=O)NC(=O)NC1=O [phenobarbital]
  increase of Cyp1a2 activity: 45%

Source: US9777258B2, “Methods for differentiating cells into hepatic stellate cells and hepatic sinusoidal endothelial cells, cells produced by the method, and methods for using the cells” (Katholieke Universiteit Leuven, priority 2010, dated 2017)
